Key:
PKG = test: Hepatic PKG expression (14-week experiment); format: in vivo, mice; settings: drinking KMUP-1; protection and treatment groups
PPARγ = PPARγ expression in HepG2 cells; format: cell-based
Procedure: (§1) HepG2 cells were treated with various concentrations of drugs for 24 hours. Reactions were terminated by washing twice with cold PBS, and the cells were then harvested, Proteins in the whole-cell lysate were homogenized in an ice-cold lysis buffer and a protease inhibitor (Sigma-Aldrich, St. Louis, Mo., U.S.A.). The homogenate was centrifuged at 90, 000 g for 15 minutes at 4° C., and supernatant was recovered as the total cellular protein. Cytosolic and membrane fractions of HepG2 cells were prepared using a. CNM (Cytosol Nuclear Membrane) compartment protein extraction kit (BioChain Institute Inc., Hayward, Calif., U.S.A.) according to the manufacturer's instructions. All of the fractionated protein solutions were stored at −80° C. until analysis. To measure the expression levels of proteins by drugs, the total cell protein was extracted after incubation with treatments for 24 hours and then Western blotting analysis was performed as described previously.

HMG CoA reductase = HMG CoA reductase expression in HepG2 cells (Western blotting); format: cell-based
Procedure: The HepG2 hepatoma cell line was purchased from the American Type Culture Collection (ATCC; Manassas, Va., U.S.A.). Cells were cultured in DMEM. The culture media was supplemented with 5% heat-Inactivated FBS, penicillin (100 U/mL) and streptomycin (100 μg/mL). Cells were grown in a humidified atmosphere containing 5% CO2 at 37° C., in which the oxygen tension in the incubator was held at 140 mmHg (20% O2, v/v; normoxic conditions).
as §1

TNF-α = test: IHC staining of TNF-α in epididymal fat pads; format: in vivo, mice; settings: protection, 2.5 mg/kg/day
Procedure: (§2) For IHC of MMP-9/TNFα, HSL/p-HSL/ATGL and eNOS/IL-10, antigen retrieval of de-paraffinated sections was performed in Dako target retrieval solution, pH 9.0, in a vegetable steamer followed by the quenching of endogenous peroxidase activity with 3.0% H2O2 in methanol. Sections were then incubated with specific primary antibodies overnight at 4° C. in a humidified chamber. The antibodies used included rabbit polyclonal anti-eNOS (1:50 dilution) (Abcam, Cambridge, UK) or rabbit monoclonal anti-cleaved caspase-3 (1:50 dilution) (Cell Signaling, USA). The sections were then examined using a DAKO REAL EnVision™ Detection System kit (DAKO, Carpinteria, Calif.) and counterstained with hematoxylin. Images were obtained through a Nikon Eclipse TE200-S microscope.

IL-10 = test: IHC staining of IL-10 in epididymal fat pads; format: in vivo, mice; settings: protection, 2.5 mg/kg/day
Procedure: as §2

ApoA-I = ApoA-I expression in HepG2 cells; format: cell-based; settings: HepG2, 10^−9-10^−5 M
Procedure: as §1

HSL = test: IHC staining of HSL in steatohepatitis liver; format: in vivo, mice; settings: after treatment or protection
Procedure: (§3) In the 14-week experiment, mice were fed a HFD from week 1 to week 14. During the 3 month experiments, KMUP-1 HCl (2.5 mg) was added to 200 ml tap water and) and drink for 14 weeks or for the last 6 weeks on mice or obese mice fed HFD, separately. 5 mice had free access to drinking water from week 1 to week 14 (protective group) or from week 8 to week 14 (treatment group). Tap water was used to normalize mineral nutrition (Scheme A).
as §2

eNOS = test: IHC staining of eNOS in epididymal fat pads; format: in vivo, mice; settings: protection, 2.5 mg/kg/day
Procedure: as §2

LDLR = test: Fluorescence staining of LDLRs in HepG2 cells; format: cell-based
Procedure: HepG2 cells were used to determine the cellular protein expression of LDLRs in the presence of exogenous LDL (500 μg/mL) Bodipy-493/503 ([…]) overnight at 4° C., followed by merger of obtained BODIPY- and LDL-images to analyze the location of LDLRs. All images were collected and analyzed by scanning with Nikon Eclipse TE200-S microscope (Tokyo, Japan).

mice fed with HFD = test: HFD-fed mice, 8 weeks, gavage: serum/liver lipids, body weight, food intake; format: in vivo; settings: HFD mice, 8 weeks
Procedure: In the 8 week experiment, C57BL/6J male mice (21-22 g), after fasting, were fed a HFD as a model of hyperlipidemia for 8 weeks. During the 2 month experiments, mice fasted for one night before the experiment was changed from a standard diet (STD) to a HFD and then the mice were randomly divided into 5 groups, including 2 control and 3 treatment groups. Six mice were used in each group. […] Liver from the protection group supplemented with KMUP-1 HCl (1 mg/kg/day) were used to determine the HMG CoA reductase expression.
Within 2 months, the 3 day food intake average for each animal was measured. The weight gain and plasma lipid levels of each group were determined and compared to the non-treatment control group. Mouse blood was collected during the daytime by cardiac puncture followed by centrifugation at 90 g (Benchtop Centrifuge, U.S.A.) to separate the serum, and frozen at −80° C., for biochemical analysis using a Hitachi Clinical Analyzer 7070 (Hitachi High-Technologies Co. Tokyo, Japan). Agents used in the assays were Obtained from Merck & Co. (Kenilworth, N.J., U.S.A.). Triglyceride (TG), total cholesterol, HDL cholesterol and LDL cholesterol in mouse serum were measured by methods used in the clinic. To measure the hepatic TG, isolated liver were cut into small chips.

ATGL = test: IHC staining of ATGL in steatohepatitis liver; format: in vivo, mice; settings: more prominent in protection than treatment groups
Procedure: as §3, §2

Cn1c(=O)c2c(ncn2CCN2CCN(c3ccccc3Cl)CC2)n(C)c1=O [KMUP-1, 7-[2-[4-(2-chlorophenyl)piperazinyl]ethyl]-1,3-dimethyl xanthine]
hepatic PKG expression (PKG): promote | increase of PPARγ (PPARγ; HepG2): 2-3 fold | expression of PPARγ (PPARγ; HepG2, 10^−9-10^−5 M): increased | FPP- or GGPP-suppressed expression of PPARγ (PPARγ; HepG2, KMUP-1 10^−9-10^−5 M with FPP or GGPP): reversed | PPARγ expression (FIG. 24C) (PPARγ; HepG2, simvastatin, KMUP-1, Y27632 10^−5M, C3 exoenzyme): increased | mevalonate (100 μM)-inhibited HMG CoA reductase expression (HMG CoA reductase; HepG2, 10^−5M): prevented | HMG CoA reductase expression (HMG CoA reductase; HepG2, serum/vehicle-containing medium, 10^−9-10^−5M, 24 hours): concentration-dependently increased | IHC staining of TNF-α in epididymal fat pads (TNF-α): inhibited | IHC staining of IL-10 in epididymal fat pads (IL-10): increased | ApoA-I expression (ApoA-I): concentration-dependently increased | HSL (IHC, liver) (HSL): partly increased | IHC staining of eNOS in epididymal fat pads (eNOS): inhibited | LDLR (green fluorescence) expression (LDLR; HepG2, 24 hours, KMUP-1 10^−6, 10^−5, 10^−4 M, simvastatin 10^−5 M): increased | LDLR fluorescence at high concentration (LDLR; HepG2, concentrations >10^−4 M, near the viability range): decline in fluoresence | HDL cholesterol level (mice fed with HFD): significantly increased | HFD-induced hypercholesterolemia (mice fed with HFD): significantly improved | HDL cholesterol (mice fed with HFD; 2.5 mg/kg): 103.6 ± 4.2 mg/dL | LDL cholesterol (mice fed with HFD; 2.5 mg/kg): 14.2 ± 1.4 mg/dL | TG in serum (mice fed with HFD; 2.5 mg/kg): 74.5 ± 5.1 mg/dL | TG of liver (mice fed with HFD; 2.5 mg/kg): 28.4 ± 3.6 mg/dL | Tot. chol. (total cholesterol) (mice fed with HFD; 2.5 mg/kg): 133.0 ± 5.1 mg/dL | final BW (Body weight) (mice fed with HFD; 2.5 mg/kg): 25.7 ± 0.7 g | HDL cholesterol (mice fed with HFD; 5 mg/kg): 118.3 ± 5.7 mg/dL | LDL cholesterol (mice fed with HFD; 5 mg/kg): 14.2 ± 2.2 mg/dL | TG in serum (mice fed with HFD; 5 mg/kg): 72.7 ± 4.7 mg/dL | TG of liver (mice fed with HFD; 5 mg/kg): 26.12 ± 3.1 mg/dL | Tot. chol. (total cholesterol) (mice fed with HFD; 5 mg/kg): 125.5 ± 9.8 mg/dL | final BW (Body weight) (mice fed with HFD; 5 mg/kg): 24.3 ± 0.5 g | ATGL lipolysis (IHC, liver) (ATGL): induced

Source: patent publication US20150359798A1, “PIPERAZINYL DERIVATIVE REDUCES HIGH-FAT DIET-INDUCED ACCUMULATION OF FAT IN THE LIVERS, […]” (priority 2011, published 2015)
